Reference: US8067445B2, “N,N-disubstituted aminoalkylbiphenyl antagonists of prostaglandin D2 receptors” (Panmira Pharmaceuticals, LLC, priority 2008, dated 2011)

target: T1, human DP1 receptor (Homo sapiens, UniProt Q13258); assay: DP1 radioligand binding assay ([3H]BWA868C, platelet membranes); conditions: [3H]BWA868C binding, human platelet membranes; read-out: hDP1
T1 construct: tissue Biological Specialty Corporation; host or cells: human platelet membranes
T1 sequence (Q13258 1-359): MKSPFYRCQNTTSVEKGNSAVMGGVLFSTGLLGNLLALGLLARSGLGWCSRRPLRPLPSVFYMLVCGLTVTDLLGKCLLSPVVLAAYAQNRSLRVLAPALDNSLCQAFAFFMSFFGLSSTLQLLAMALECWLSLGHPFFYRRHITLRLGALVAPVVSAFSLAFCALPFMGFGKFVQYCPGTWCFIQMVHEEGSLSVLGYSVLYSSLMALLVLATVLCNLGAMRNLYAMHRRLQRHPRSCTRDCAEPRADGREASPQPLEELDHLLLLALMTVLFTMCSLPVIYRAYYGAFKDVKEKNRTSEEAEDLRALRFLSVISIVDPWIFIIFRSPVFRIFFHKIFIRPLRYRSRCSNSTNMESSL
Description: The ability of a compound to bind to the human DPI receptor was evaluated via a radioligand membrane binding assay using the DP1 selective synthetic ligand [^311]BWA868C. Packed human platelets (Biological Specialty Corporation), were resuspended in 6 volumes of Hepes/HBSS buffer (10 mM Hepes, 1 mM DTT in Hanks Balanced Salt Solution (HBSS)), lysed and centrifuged at 75,000×g to pellet the membranes. Membranes were resuspended in Hepes/HBSS buffer to approximately 12 mg protein/ml. Membranes (20 μg protein/well) are incubated in 96-well plates with 2 nM [^3H]BWA868C and test compound in Assay Buffer (50 mM Hepes, 10 mM MnCl2, 1 mM EDTA, plus or minus 0.2% human serum albumin, pH 7.4) for 60 minutes at room temperature. The reactions are terminated by rapid filtration through Whatman GF/C glass fibre filter plates. The filter plates were pre-soaked in 0.33% polyethylenimine for 30 minutes at room temperature then washed in Wash Buffer (50 mM Hepes, 0.5 M NaCl pH 7.4) prior to harvesting. After harvesting, the filter plates are washed 3 times with 1 ml cold Wash Buffer then dried. Scintillant is then added to the plates and the radioactivity retained on the filters is determined on a Packard TopCount (Perkin Elmer). Specific binding is determined as total radioactive binding minus non-specific binding in the presence of 10 μM BW A868C. IC50s were determined using GraphPad prism analysis of drug titration curves.

IC50 | SMILES
1 to 30 µM | CCN(Cc1cc(C(F)(F)F)ccc1-c1cc(CC(=O)O)ccc1OC)C(=O)NCc1cccc(Cl)c1 [Compound 1-177, {2′-[3-(3-Chloro-benzyl)-1-ethyl-ureidomethyl]-6-methoxy-4′-trifluoromethyl-biphenyl-3-yl}-acetic acid]
1 to 30 µM | CCN(Cc1cc(C(F)(F)F)ccc1-c1cc(CC(=O)O)ccc1OC)C(=O)NCc1cc(F)cc(F)c1 [Compound 1-178, {2′-[3-(3,5-Difluoro-benzyl)-1-ethyl-ureidomethyl]-6-methoxy-4′-trifluoromethyl-biphenyl-3-yl}-acetic acid]
1 to 30 µM | CCN(Cc1cc(C(F)(F)F)ccc1-c1cc(CC(=O)O)ccc1OC)C(=O)N[C@H](C)c1ccc(Cl)cc1 [Compound 1-179, (2′-{3-[(R)-1-(4-Chloro-phenyl)-ethyl]-1-ethyl-ureidomethyl}-6-methoxy-4′-trifluoromethyl-biphenyl-3-yl)-acetic acid]
1 to 30 µM | CCN(Cc1cc(C(F)(F)F)ccc1-c1cc(CC(=O)O)ccc1OC)C(=O)N[C@@H](C)c1ccc(Cl)cc1 [Compound 1-180, (2′-{3-[(S)-1-(4-Chloro-phenyl)-ethyl]-1-ethyl-ureidomethyl}-6-methoxy-4′-trifluoromethyl-biphenyl-3-yl)-acetic acid]
1 to 30 µM | CCNC(=O)N(CC)Cc1cc(C(F)(F)F)ccc1-c1cc(CC(=O)O)ccc1OC [Compound 1-181, [2′-(1,3-Diethyl-ureidomethyl)-6-methoxy-4′-trifluoromethyl-biphenyl-3-yl]-acetic acid]
1 to 30 µM | CCN(Cc1cc(F)ccc1-c1cc(CC(=O)O)ccc1OC)C(=O)OCc1ccccc1 [Compound 1-183, {2′-[(Benzyloxycarbonyl-ethyl-amino)-methyl]-4′-fluoro-6-methoxy-biphenyl-3-yl}-acetic acid]
1 to 30 µM | CCN(Cc1cc(F)ccc1-c1cc(CC(=O)O)ccc1OC)C(C)=O [Compound 1-184, {2′-[(Acetyl-ethyl-amino)-methyl]-4′-fluoro-6-methoxy-biphenyl-3-yl}-acetic acid]
1 to 30 µM | CCN(Cc1cc(F)ccc1-c1cc(CC(=O)O)ccc1OC)C(=O)NCc1ccc(Cl)cc1 [Compound 1-185, {2′-[3-(4-Chloro-benzyl)-1-ethyl-ureidomethyl]-4′-fluoro-6-methoxy-biphenyl-3-yl}-acetic acid]
1 to 30 µM | CCN(Cc1cc(F)ccc1-c1cc(CC(=O)O)ccc1OC)C(=O)C1CC1 [Compound 1-186, {2′-[(Cyclopropanecarbonyl-ethyl-amino)-methyl]-4′-fluoro-6-methoxy-biphenyl-3-yl}-acetic acid]
1 to 30 µM | CCN(Cc1cc(F)ccc1-c1cc(CC(=O)O)ccc1OC)C(=O)NCc1ccccc1 [Compound 1-187, [2′-(3-Benzyl-1-ethyl-ureidomethyl)-4′-fluoro-6-methoxy-biphenyl-3-yl]-acetic acid]
1 to 30 µM | O=C(O)CCn1c2c(c3ccccc31)C[C@H](NS(=O)(=O)c1ccc(F)cc1)CC2 [Ramatroban, reference compound]

Further lines, the compound ahead of its results:

SMILES | IC50
CCN(Cc1cc(C(F)(F)F)ccc1-c1cc(CC(=O)O)ccc1OC)C(=O)OC(C)c1ccc(Cl)cc1 (stereo not drawn) [Compound 1-44, [2′-({[1-(4-Chloro-phenyl)-ethoxycarbonyl]-ethyl-amino}-methyl)-6-methoxy-4′-trifluoromethyl-biphenyl-3-yl]-acetic acid] | 1 to 30 µM
CCN(Cc1cc(C(F)(F)F)ccc1-c1cc(CC(=O)O)ccc1OC)C(=O)C(C)Oc1ccccc1 (stereo not drawn) [Compound 1-45, (2′-{[Ethyl-(2-phenoxy-propionyl)-amino]-methyl}-6-methoxy-4′-trifluoromethyl-biphenyl-3-yl)-acetic acid] | 1 to 30 µM
CCN(Cc1cc(C(F)(F)F)ccc1-c1cc(CC(=O)O)ccc1OC)C(=O)COC [Compound 1-46, (2′-{[Ethyl-(2-methoxy-acetyl)-amino]-methyl}-6-methoxy-4′-trifluoromethyl-biphenyl-3-yl)-acetic acid] | 1 to 30 µM
CCN(Cc1cc(C(F)(F)F)ccc1-c1cc(CC(=O)O)ccc1OC)C(=O)COc1ccccc1 [Compound 1-48, (2′-{[Ethyl-(2-phenoxy-acetyl)-amino]-methyl}-6-methoxy-4′-trifluoromethyl-biphenyl-3-yl)-acetic acid] | 1 to 30 µM
CCN(Cc1cc(C(F)(F)F)ccc1-c1cc(CC(=O)O)ccc1OC)C(=O)COCc1ccccc1 [Compound 1-92, (2′-{[(2-Benzyloxy-acetyl)-ethyl-amino]-methyl}-6-methoxy-4′-trifluoromethyl-biphenyl-3-yl)-acetic acid] | 1 to 30 µM
CCN(Cc1cc(C(F)(F)F)ccc1-c1cc(CC(=O)O)ccc1OC)C(=O)COc1ccc(Cl)cc1 [Compound 1-93, [2′-({[2-(4-Chloro-phenoxy)-acetyl]-ethyl-amino}-methyl)-6-methoxy-4′-trifluoromethyl-biphenyl-3-yl]-acetic acid] | 1 to 30 µM
CCN(Cc1ccccc1)C(=O)N(CC)Cc1cc(C(F)(F)F)ccc1-c1cc(CC(=O)O)ccc1OC [Compound 1-94, [2′-(3-Benzyl-1,3-diethyl-ureidomethyl)-6-methoxy-4′-trifluoromethyl-biphenyl-3-yl]-acetic acid] | 1 to 30 µM
CCN(Cc1cc(C(F)(F)F)ccc1-c1cc(CC(=O)O)ccc1OC)C(=O)NCc1ccccc1 [Compound 1-96, [2′-(3-Benzyl-1-ethyl-ureidomethyl)-6-methoxy-4′-trifluoromethyl-biphenyl-3-yl]-acetic acid] | 1 to 30 µM
CCN(Cc1cc(C(F)(F)F)ccc1-c1cc(CC(=O)O)ccc1Cl)C(=O)OCc1ccccc1 [Compound 1-110, {2′-[(Benzyloxycarbonyl-ethyl-amino)-methyl]-6-chloro-4′-trifluoromethyl-biphenyl-3-yl}-acetic acid] | 1 to 30 µM
CCN(Cc1cc(C(F)(F)F)ccc1-c1cc(CC(=O)O)ccc1OC)C(=O)C(C)(C)Oc1ccc(Cl)cc1 [Compound 1-118, [2′-({[2-(4-Chloro-phenoxy)-2-methyl-propionyl]-ethyl-amino}-methyl)-6-methoxy-4′-trifluoromethyl-biphenyl-3-yl]-acetic acid] | 1 to 30 µM
CCOc1ccc(CC(=O)O)cc1-c1ccc(C(F)(F)F)cc1CN(CC)C(=O)OCc1ccccc1 [Compound 1-129, {2′-[(Benzyloxycarbonyl-ethyl-amino)-methyl]-6-ethoxy-4′-trifluoromethyl-biphenyl-3-yl}-acetic acid] | 1 to 30 µM
CCN(Cc1cc(C(F)(F)F)ccc1-c1cc(CC(=O)O)ccc1OC)C(=O)NCc1ccc(Cl)c(Cl)c1 [Compound 1-152, {2′-[3-(3,4-Dichloro-benzyl)-1-ethyl-ureidomethyl]-6-methoxy-4′-trifluoromethyl-biphenyl-3-yl}-acetic acid] | 1 to 30 µM
CCN(Cc1cc(NC(C)=O)ccc1-c1cc(CC(=O)O)ccc1OC)C(=O)OCc1ccccc1 [Compound 1-153, {4′-Acetylamino-2′-[(benzyloxycarbonyl-ethyl-amino)-methyl]-6-methoxy-biphenyl-3-yl}-acetic acid] | 1 to 30 µM
CCN(Cc1cc(NS(C)(=O)=O)ccc1-c1cc(CC(=O)O)ccc1OC)C(=O)OCc1ccccc1 [Compound 1-155, {2′-[(Benzyloxycarbonyl-ethyl-amino)-methyl]-4′-methanesulfonylamino-6-methoxy-biphenyl-3-yl}-acetic acid] | 1 to 30 µM
CCN(Cc1cc(C(F)(F)F)ccc1-c1cc(CC(=O)O)ccc1OC)C(=O)NCc1cc(Cl)cc(Cl)c1 [Compound 1-165, {2′-[3-(3,5-Dichloro-benzyl)-1-ethyl-ureidomethyl]-6-methoxy-4′-trifluoromethyl-biphenyl-3-yl}-acetic acid] | 1 to 30 µM
CCN(Cc1cc(C(F)(F)F)ccc1-c1cc(CC(=O)O)ccc1OC)C(=O)NCc1ccc(F)cc1 [Compound 1-176, {2′-[1-Ethyl-3-(4-fluoro-benzyl)-ureidomethyl]-6-methoxy-4′-trifluoromethyl-biphenyl-3-yl}-acetic acid] | 1 to 30 µM
